From US6737383B1, “Herbicidal oxadiazolidines” (priority 1999, dated 2004)

Assays:
corn = experiment: Test B pre/postemergence corn; format: in vivo, Zea mays
How it was run: (§1)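 Herbicidal effect was estimated by eye on a ten-point control scale after plants spent twelve to sixteen days in a greenhouse following soil or foliar treatment. Foliar sprays targeted plants at one to four leaves; all doses were formulated in a non-phytotoxic solvent with surfactant.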

giant foxtail = experiment: Test B pre/postemergence giant foxtail; format: in vivo, Setaria faberii
How it was run: as §1

purple nutsedge = experiment: Test B pre/postemergence purple nutsedge; format: in vivo, Cyperus rotundus
How it was run: as §1

cocklebur = experiment: Test B pre/postemergence cocklebur; format: in vivo, Xanthium strumarium
How it was run: as §1

pigweed = experiment: Test B pre/postemergence pigweed; format: in vivo, Amaranthus retroflexus
How it was run: as §1

wild oat = experiment: Test B pre/postemergence wild oat; format: in vivo, Avena fatua
How it was run: as §1

surinam grass = experiment: Test B pre/postemergence surinam grass; format: in vivo, Brachiaria decumbens; details: Postemergence
How it was run: as §1

sugar beet = experiment: Test B pre/postemergence sugar beet; format: in vivo, Beta vulgaris
How it was run: as §1

bedstraw = experiment: Test B pre/postemergence bedstraw; format: in vivo, Galium aparine
How it was run: as §1

soybean = experiment: Test B pre/postemergence soybean; format: in vivo, Glycine max
How it was run: as §1

rape = experiment: Test B pre/postemergence rape; format: in vivo, Brassica napus; details: Preemergence
How it was run: as §1

crabgrass = experiment: Test B pre/postemergence crabgrass; format: in vivo, Digitaria sanguinalis
How it was run: as §1

blackgrass = experiment: Test B pre/postemergence blackgrass; format: in vivo, Alopecurus myosuroides
How it was run: as §1

velvetleaf = experiment: Test B pre/postemergence velvetleaf; format: in vivo, Abutilon theophrasti
How it was run: as §1

morningglory = experiment: Test B pre/postemergence morningglory; format: in vivo, Ipomoea hederacea
How it was run: as §1

wheat = experiment: Test B pre/postemergence wheat; format: in vivo, Triticum aestivum
How it was run: as §1

[1] = Postemergence, Rate 62 g/ha, scale 0 to 10, 0 is no effect, 10 is complete control
[2] = Postemergence, Rate 125 g/ha, scale of 0 to 10 where 0 is no effect and 10 is complete control
[3] = Postemergence, Rate 500 g/ha, scale 0 (no effect) to 10 (complete control)
[4] = Preemergence, Rate 250 g/ha, scale 0 (no effect) to 10 (complete control)
[5] = Rate 62 g/ha, Preemergence, scale 0 to 10
[6] = Rate 125 g/ha, Preemergence, scale 0 to 10 (0 no effect, 10 complete control)
[7] = Rate 250 g/ha, Postemergence, scale 0 to 10, 0 is no effect, 10 is complete control
[8] = Rate 500 g/ha, Preemergence, scale 0 to 10 (0 no effect, 10 complete control)

C#CCCn1c(=O)on(C(=O)N(c2ccc(F)cc2)C(C)C)c1=O [Compound 767]
Plant response rating, Corn (corn; [1]): 0
Corn plant response rating (corn; [2]): 0
Corn plant response rating (corn; [3]): 2
Corn plant response rating (corn; [4]): 0
Corn plant response rating (corn; [5]): 0
Corn plant response rating (corn; [6]): 0
Corn plant response rating (corn; [7]): 0
Corn plant response rating (corn; [8]): 5
Plant response rating, Giant foxtail (giant foxtail; [1]): 8
Giant foxtail plant response rating (giant foxtail; [2]): 8
Giant foxtail plant response rating (giant foxtail; [3]): 9
Giant foxtail plant response rating (giant foxtail; [4]): 10
Giant foxtail plant response rating (giant foxtail; [5]): 10
Giant foxtail plant response rating (giant foxtail; [6]): 10
Giant foxtail plant response rating (giant foxtail; [7]): 9
Giant foxtail plant response rating (giant foxtail; [8]): 10
Plant response rating, Nutsedge (purple nutsedge; [1]): 0
Nutsedge plant response rating (purple nutsedge; [2]): 0
Nutsedge plant response rating (purple nutsedge; [3]): 7
Nutsedge plant response rating (purple nutsedge; [5]): 0
Nutsedge plant response rating (purple nutsedge; [6]): 0
Nutsedge plant response rating (purple nutsedge; [7]): 0
Nutsedge plant response rating (purple nutsedge; [8]): 0
Plant response rating, Cocklebur (cocklebur; [1]): 2
Cocklebur plant response rating (cocklebur; [2]): 2
Cocklebur plant response rating (cocklebur; [3]): 2
Cocklebur plant response rating (cocklebur; [4]): 0
Cocklebur plant response rating (cocklebur; [5]): 0
Cocklebur plant response rating (cocklebur; [6]): 0
Cocklebur plant response rating (cocklebur; [7]): 2
Cocklebur plant response rating (cocklebur; [8]): 0
Plant response rating, Redroot pigweed (pigweed; [1]): 6
Redroot pigweed plant response rating (pigweed; [2]): 9
Redroot pigweed plant response rating (pigweed; [3]): 9
Redroot pigweed plant response rating (pigweed; [5]): 10
Redroot pigweed plant response rating (pigweed; [6]): 10
Redroot pigweed plant response rating (pigweed; [7]): 9
Redroot pigweed plant response rating (pigweed; [8]): 10
Plant response rating, Wild oats (wild oat; [1]): 0
Wild oats plant response rating (wild oat; [3]): 3
Wild oats plant response rating (wild oat; [5]): 9
Wild oats plant response rating (wild oat; [7]): 0
Wild oats plant response rating (wild oat; [8]): 9
Plant response rating, B. signalgrass (surinam grass; Rate 62 g/ha, scale 0 to 10, 0 is no effect, 10 is complete control): 2
B. signalgrass plant response rating (surinam grass; Rate 125 g/ha, scale of 0 to 10 where 0 is no effect and 10 is complete control): 2
B. signalgrass plant response rating (surinam grass; Rate 250 g/ha, scale 0 to 10, 0 is no effect, 10 is complete control): 6
B. signalgrass plant response rating (surinam grass; Rate 500 g/ha, scale 0 to 10, 0 is no effect, 10 is complete control): 7
Plant response rating, Sugarbeets (sugar beet; [1]): 3
Sugarbeets plant response rating (sugar beet; [3]): 7
Sugarbeets plant response rating (sugar beet; [5]): 2
Sugarbeets plant response rating (sugar beet; [6]): 6
Sugarbeets plant response rating (sugar beet; [7]): 5
Sugarbeets plant response rating (sugar beet; [8]): 9
Plant response rating, Bedstraw (bedstraw; [1]): 7
Bedstraw plant response rating (bedstraw; [2]): 7
Bedstraw plant response rating (bedstraw; [3]): 9
Bedstraw plant response rating (bedstraw; [6]): 0
Bedstraw plant response rating (bedstraw; [7]): 7
Bedstraw plant response rating (bedstraw; [8]): 8
Plant response rating, Soybean (soybean; [1]): 1
Soybean plant response rating (soybean; [3]): 7
Soybean plant response rating (soybean; [5]): 0
Soybean plant response rating (soybean; [6]): 0
Soybean plant response rating (soybean; [7]): 4
Soybean plant response rating (soybean; [8]): 2
Rape plant response rating (rape; Rate 62 g/ha, scale 0 to 10): 4
Rape plant response rating (rape; Rate 125 g/ha, scale 0 to 10 (0 no effect, 10 complete control)): 6
Rape plant response rating (rape; Rate 500 g/ha, scale 0 to 10 (0 no effect, 10 complete control)): 10
Plant response rating, Crabgrass (crabgrass; [1]): 8
Crabgrass plant response rating (crabgrass; [2]): 8
Crabgrass plant response rating (crabgrass; [3]): 9
Crabgrass plant response rating (crabgrass; [4]): 10
Crabgrass plant response rating (crabgrass; [5]): 10
Crabgrass plant response rating (crabgrass; [6]): 10
Crabgrass plant response rating (crabgrass; [7]): 9
Crabgrass plant response rating (crabgrass; [8]): 10
Plant response rating, Blackgrass (blackgrass; [1]): 9
Blackgrass plant response rating (blackgrass; [2]): 9
Blackgrass plant response rating (blackgrass; [3]): 9
Blackgrass plant response rating (blackgrass; [4]): 10
Blackgrass plant response rating (blackgrass; [5]): 10
Blackgrass plant response rating (blackgrass; [6]): 10
Blackgrass plant response rating (blackgrass; [7]): 9
Blackgrass plant response rating (blackgrass; [8]): 10
Plant response rating, Velvetleaf (velvetleaf; [1]): 2
Velvetleaf plant response rating (velvetleaf; [3]): 3
Velvetleaf plant response rating (velvetleaf; [5]): 0
Velvetleaf plant response rating (velvetleaf; [6]): 0
Velvetleaf plant response rating (velvetleaf; [7]): 2
Velvetleaf plant response rating (velvetleaf; [8]): 2
Plant response rating, Morningglory (morningglory; [1]): 5
Morningglory plant response rating (morningglory; [2]): 5
Morningglory plant response rating (morningglory; [3]): 7
Morningglory plant response rating (morningglory; [5]): 0
Morningglory plant response rating (morningglory; [6]): 0
Morningglory plant response rating (morningglory; [7]): 5
Morningglory plant response rating (morningglory; [8]): 0
Plant response rating, Wheat (wheat; [1]): 0
Wheat plant response rating (wheat; [3]): 2
Wheat plant response rating (wheat; [5]): 0
Wheat plant response rating (wheat; [6]): 5
Wheat plant response rating (wheat; [7]): 2
Wheat plant response rating (wheat; [8]): 5
